Bridge positions count the residues as written; N and C are the ends. Peptide text beside a SMILES is read from it. * marks the point of attachment. X1 = COc1ccc2c(CN*)cc(=O)oc2c1
Legend:
[1] = target: recombinant human VEGFR1 extracellular domains (ECD) (Homo sapiens, UniProt P17948); details: average of at least 3 tests each in triplicate
Description: Peptides VEGFR1 binding ability was determined by a competition ELISA test. Briefly, recombinant human VEGFR1 extracellular domains (ECD) were adsorbed on the surface of a 96-well microplate. After washing and BSA blocking, the plate was incubated with different compounds at 100 µM in competition with biotinylated VEGF (btVEGF). After additional washing steps, the remaining btVEGF was detected by chemiluminescence, via an HRP-conjugated streptavidin.
The 96-well plates were coated with humanized extracellular domains (ECD) of VEGFR-1 (R&D Systems, Abingdon, UK) in PBS (20 ng/well) overnight at 4 °C. On the following day, the plates were washed with 250 µL wash buffer (PBS containing 0.1% (v/v) Tween 20) three times and treated with blocking buffer (PBS containing 3% (w/v) BSA) at 37 °C for 2 h, followed by three washes with wash buffer. 50 µL of peptides solution at twice the desired final concentration (in PBS containing 2% DMSO) were added in triplicate wells and the plate was kept at 37 °C for 1 h. A solution of btVEGF-A165 (R & D Systems, Abingdon, UK) at twice the desired final concentration (typically 100 pM) in 50 µL PBS was added. After 2 h incubation, the plates were washed four times with wash buffer. 100 µL of Streptavidin‑Horseradish Peroxidase (Amersham, Pittsburgh, PA, USA) diluted 1:8000 w in PBS containing 0.1% (v/v) Tween 20 and 0.3% (w/v) BSA) were then added to each well to detect the btVEGF‑A165 bound to the ECD of VEGFR1. After 45 min incubation at 37 °C and in the dark, the plate was washed five times with wash buffer. A volume of 100 µL of SuperSignal West Pico Chemioluminescent Substrate (Pierce, Rockford, IL, USA) was added and the chemiluminescence was quantified with a Perkin Elmer Victor 2 spectrophotometer (Victor Wallac Multilabel reader). The percentages of displacement were calculated by the following formula: 100 × [1 − (S − NS)/(MS − NS)] where S is the signal measured, NS is the nonspecific binding signal defined as the signal measured in the absence of coated receptor on the microplate, and MS is the maximum binding signal obtained with (bt)-VEGF-A165 without competitor.

[2] = water solubility (qualitative); format: physicochemical; details: qualitative comparison between peptides
D2 domain of VEGFR1 = details: shares with VEGF a common binding site on D2 (His223, Arg224); cited from earlier work
Description: In the laboratory, a series of cyclic octapeptides has been developed.

recombinant human VEGFR1 extracellular domains (ECD), sequence (P17948 27-758 limits assumed): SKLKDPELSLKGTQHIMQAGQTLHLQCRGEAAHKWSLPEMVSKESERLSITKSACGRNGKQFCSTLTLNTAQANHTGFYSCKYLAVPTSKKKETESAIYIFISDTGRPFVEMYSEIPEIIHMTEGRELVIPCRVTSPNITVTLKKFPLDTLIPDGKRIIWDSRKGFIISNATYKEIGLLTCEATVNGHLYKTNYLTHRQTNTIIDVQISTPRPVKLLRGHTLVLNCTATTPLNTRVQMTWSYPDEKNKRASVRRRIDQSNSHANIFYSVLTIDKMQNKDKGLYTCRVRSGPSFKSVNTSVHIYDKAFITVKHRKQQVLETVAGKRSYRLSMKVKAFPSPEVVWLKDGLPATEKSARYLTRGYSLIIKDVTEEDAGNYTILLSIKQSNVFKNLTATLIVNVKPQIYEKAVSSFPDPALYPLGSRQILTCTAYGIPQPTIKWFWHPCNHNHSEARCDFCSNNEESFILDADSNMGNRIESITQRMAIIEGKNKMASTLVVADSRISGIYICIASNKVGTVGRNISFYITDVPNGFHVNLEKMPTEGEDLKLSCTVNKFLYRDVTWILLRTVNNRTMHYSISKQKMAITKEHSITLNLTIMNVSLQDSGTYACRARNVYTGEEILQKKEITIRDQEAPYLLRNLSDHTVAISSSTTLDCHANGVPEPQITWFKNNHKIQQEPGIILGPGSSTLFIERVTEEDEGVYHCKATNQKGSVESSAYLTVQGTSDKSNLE

Compound | Displacement (%) 30 µM ([1]; dose dependence, peptide 30 µM, NA means no activity) [%] | Displacement (%) 50 µM ([1]; dose dependence, peptide 50 µM) [%] | Displacement (%) 100 µM ([1]; dose dependence, peptide 100 µM) [%] | Displacement 100 µM (%) ([1]; percentage of btVEGF displaced by peptide at 100 µM, btVEGF-A165 typically 100 pM, chemiluminescence, same btVEGF batch) | water solubility [2] | interaction with the D2 domain of VEGFR1 by NMR (D2 domain of VEGFR1)
COc1ccc2c(CNC(=O)[C@@H]3CCC(=O)N[C@@H](Cc4ccc(O)cc4)C(=O)N[C@@H](CCCCN)C(=O)N[C@@H](CC(=O)O)C(=O)N[C@@H](CCC(=O)O)C(=O)NCC(=O)N[C@@H](CC(C)C)C(=O)N[C@@H](CCC(=O)O)C(=O)N3)cc(=O)oc2c1 [Peptide 19] (YKDEGLEE-X1; lactam N-8) | 11 | 41 | 68 | 68 | slightly less water soluble than 15 and 16 | –
c[YYDEGLEE]-NH2 (sidechain bridge or staple) [Peptide 1] | – | – | – | – | – | interacts
